The values below come from patent publication US6451761B1, “N′N′-dichlorinated omega-amino acids and uses thereof” (Queen's University at Kingston, priority 1999, dated 2002).

Read-outs that look alike come from different tables or passages of the source.

Series [1] can be described thus: Stability on storage and in water or solvents (TLC and NMR monitoring). It counts as physicochemical. The procedure:
Taurine (1.5 g) was suspended in a mixture of methanol (50 mL) and 4 M aqueous hydrochloric acid (25 mL). To this was added in small aliquots 4-6% aqueous sodium hypochlorite (40 mL) with stirring. The taurine dissolved with evolution of gentle heat. After 2 h the solution was concentrated (below 30° C.) to a small volume. Ethanol (200 mL) was added and the precipitated sodium chloride was removed by filtration. This procedure was repeated until no more precipitate formed. After concentration to a small volume of oily residue, 50/50 methanol-ethyl acetate (100 mL) was added, and the mixture was again filtered to remove residual sodium chloride. Upon reconcentration, the residue was treated with 0.04 M aqueous hydrochloric acid in acetone (25 mL). Slow concentration yielded white, iridescent plates, (0.7 g). […] Detection was by spraying with 2% KI-starch (yellow-brown) followed by ethanolic ninhydrin (faintly pink); M.P. 148° C. UV (λmax) 310 nm (ε1.851×10^2, 95% ethanol); ^1Hmr (D2O) 3.05-3.2(2H, m) and 3.95-4.05(2H, m); MS (es−): 191.9(18.76%), 193.8 (13.41%), 195.8(2.83%).
The chlorinaton and desalting methodology was essentially similar to that for taurine. […] Final isolation was from 50/50 (^v/v) diethylether-methanol plus dichloromethane, followed by slow evaporation at approximately 0-4° C. M.P. 197° C.; UV: λmax 308 (ε1.486×10^2, 95% ethanol); ^1Hmr (D2O) δ: 2.05-2.15 (2H, m, αCH2), 2.95-3.05 (2H, m, βCH2), 3.9-4.0 (2H, m, γCH2); MS (es−): 205.9(1.4%), 207.9(0.88%), 210.0(0.31%).
N,N-dichloro-GABA: UV: λmax 308 nm (ε2.974×10^2, 95% ethanol); ^1Hmr (CDCl3) δ: 1.95-2.05 (2H, m,αCH2), 2.4-2.5 (2H, m, βCH2), 3.6-3.75 (2H, m, γCH2). Decomposition in water was about 50% in 3 h at room temperature (TLC monitored). […]
The procedure for the synthesis of N′N′-dichloro-leucine was identical to that for the dichloroGABA. The product is a pale-yellow oil. When stored in dichloromethane, at −10° C.; the compound readily decomposed with an approximate half-life of 1 h.
From the above Examples it is apparent that dichlorination of ω-amino acids yields products which vary considerably in their stability. […] The most important precaution required for stable storage is the removal of all traces of water. […] A yield of between 30-60% was obtained, which can be improved by more efficiently exploiting the fact that primary amines are far less soluble than their chlorinated products in non-polar solvents. Those of ordinary skill in the art will recognize that the methods for isolation of the chlorinated amino acids described here can be extended to other α-carboxyl amino acids, as well as peptides and proteins.

The test system of series [2] is rat brain amino acid profile. The series is described as follows: Effect on rat brain amino acid profile. It counts as in vivo, Sprague-Dawley rats. Conditions: for GABA tissue content / GLUTAMATE tissue content / TAURINE tissue content: 10-30 min prior to sacrifice; for GABA tissue content / GLUTAMATE tissue content / TAURINE tissue content / RATIO GLU/TAU / RATIO GLY/GLU: average of three rats; for % change GABA / % change GLUTAMATE / % change RATIO GLU/TAU / % change RATIO GLY/GLU / % change TAURINE: dichlorotaurine vs taurine (control). The procedure: Three Sprague-Dawley rats were each injected with taurine (200 mg/kg) (control), and another three Sprague-Dawley rats were each administered dichlorotaurine (200 mg/kg): one at 10 min (i.p.), one at 20 min (i.p.) and one at 30 min (i.v.) prior to sacrifice. The animals were anesthetized with ether and then sacrificied by cardiac perfusion with phosphate buffered saline for 5 min, before the brains were removed at room temp.
Brain regions were dissected by hand on a glass cold plate (4-6° C.). The samples were homogenized in 9× weight by volume of water, then perchloric acid was added to a final concentration of 0.6 M to precipitate proteins. Samples (20 μL) were neutralized with 15 μL 2M KHCO3. The extracts were centrifuged and supernatants were diluted with water 1:100. Amino acid analysis was performed by derivatization with o-phthaldialdehyde followed by liquid chromatography (Varian LC 5000 and Schoeffel FS 970 fluorometer). […] Identification and quantification by peak height was calibrated against a standard amino acid solution.
Data are shown in Table1, below, where each taurine (control) value and dichlorotaurine value is the average of the three respective rats. The amino acid values represent endogenous neural tissue content and not extracellular (release) concentrations. The most pronounced effects of the dichlorotaurine are on the cortex-hippocampus. The data are interpreted as directed towards reduced (↓) excitability. Moreover, the data provide evidence that administration of dichlorotaurine attenuates the pathological consequences of excessive glutamate release, which is known to occur under clinical conditions such as, for example, epilepsy, intractable pain disorders, Huntington's Disease, Parkinson's Disease, and abnormalities associated with CNS trauma (e.g., stroke, spinal cord injury, impact trauma).

The next series deals with mice. Conditions: for behaviour following injection: mice (20 g), 200 mg/Kg.
Setting [3] is: frontal cortex, rats, 200 mg/kg.
[4] abbreviates: mice, 100 mg/Kg s.c. at 60 min intervals for three hours.

Protocol for mice: Two other mice (20 g) received dichlorotaurine (0.1 mL=100 mg/Kg) s.c. at 60 min intervals for three hours.

For the compound `O=C(O)CCN(Cl)Cl` [N,N-dichloro-β-alanine, N′N′-dichloro-β-alanine], the “relative stability in water or 95% ethanol” value in series [1] is given as “More stable than N,N-dichloro-GABA”.

In the case of `O=C(O)CCCN(Cl)Cl` [N,N-dichloro-GABA, N,N-dichloro-γ-aminobutyric Acid], the “relative stability when in contact with water” value (“relative stability when” below) in series [1] is on record as “the least stable”. In addition, in series [1] (3 h at room temperature, TLC monitored), the Decomposition in water entry is “about 50%”.

`NCCS(=O)(=O)O` [taurine, reference compound]: in series [2] (brain stem, rats, 200 mg/kg), the GABA tissue content was found to be 2.25 nmoles/mg wet weight, the GLUTAMATE tissue content is on record as 8.20 nmoles/mg wet weight, the TAURINE tissue content was 2.29 nmoles/mg wet weight and the “RATIO GLU/TAU” value was 3.73. Moreover, the “RATIO GLY/GLU” value in series [2] (brain stem, rats, 200 mg/kg) is 1.30. Also, in series [2] (cerebellum, rats, 200 mg/kg), the GABA tissue content was determined as 2.25 nmoles/mg wet weight, the GLUTAMATE tissue content was found to be 11.32 nmoles/mg wet weight, the TAURINE tissue content is 5.38 nmoles/mg wet weight and the “RATIO GLU/TAU” value is given as 2.15. For the same compound, in series [2] (cerebellum, rats, 200 mg/kg), the “RATIO GLY/GLU” value is 0.48. In series [2] (setting [3]), the GABA tissue content is 2.28 nmoles/mg wet weight, the GLUTAMATE tissue content stood at 15.04 nmoles/mg wet weight, the TAURINE tissue content is 7.67 nmoles/mg wet weight and the “RATIO GLU/TAU” value turned out to be 1.98. Moreover, in series [2] (setting [3]), the “RATIO GLY/GLU” value was 0.28. In series [2] (hippocampus, rats, 200 mg/kg), the GABA tissue content came to 2.83 nmoles/mg wet weight, the GLUTAMATE tissue content stood at 13.82 nmoles/mg wet weight, the TAURINE tissue content worked out at 7.38 nmoles/mg wet weight and the “RATIO GLU/TAU” value was 1.91. The “RATIO GLY/GLU” value in series [2] (hippocampus, rats, 200 mg/kg) turned out to be 0.36. Besides, the behaviour following injection entry in the series on mice was “normal behaviour”.

For `CC(C)C[C@@H](C(=O)O)N(Cl)Cl` [N′N′-dichloro-leucine, N,N-dichloro-L-leucine, reference compound], in series [1] (in contact with water), the “relative stability when” value is given as “the least stable”. Moreover, the half-life in series [1] (stored in dichloromethane at −10° C., read-out: half-life of decomposition (converted)) is ~1 h.

Consider `O=S(=O)(O)CCN(Cl)Cl` [dichlorotaurine, N′N′-dichlorotaurine], for which, in series [2] (GABA changes), the interpretation entry is given as “↓ excitability”. The interpretation entry in series [2] (GLUTAMATE changes) is “↓ excitability”. The interpretation entry in series [2] (RATIO GLU/TAU changes) is listed as “↓ excitability”. Further, the interpretation result in series [2] (RATIO GLY/GLU changes) was “↓ excitability”. Also, the interpretation entry in series [2] (TAURINE changes) is recorded as “↓ excitability”. Also, in series [2] (brain stem), the “% change GABA” value is “— (±15% considered non-significant: no change)”, the “% change GLUTAMATE” value is reported as “— (±15% considered non-significant: no change)”, the “% change RATIO GLU/TAU” value is on record as −33% and the “% change RATIO GLY/GLU” value is on record as “+19%”. In series [2] (brain stem), the “% change TAURINE” value is on record as “—* (±15% considered non-significant: no change)”. In series [2] (brain stem, rats, 200 mg/kg), the GABA tissue content was 2.32 nmoles/mg wet weight, the GLUTAMATE tissue content stood at 7.19 nmoles/mg wet weight, the TAURINE tissue content came out at 2.63 nmoles/mg wet weight and the “RATIO GLU/TAU” value amounted to 2.50. For the same compound, in series [2] (brain stem, rats, 200 mg/kg), the “RATIO GLY/GLU” value was 1.55. In series [2] (cerebellum), the “% change GABA” value is listed as “— (±15% considered non-significant: no change)”, the “% change GLUTAMATE” value is “— (±15% considered non-significant: no change)”, the “% change RATIO GLU/TAU” value is “— (±15% considered non-significant: no change)” and the “% change RATIO GLY/GLU” value is “— (±15% considered non-significant: no change)”. Further, the “% change TAURINE” value in series [2] (cerebellum) is “— (±15% considered non-significant: no change)”. Moreover, in series [2] (cerebellum, rats, 200 mg/kg), the GABA tissue content is given as 1.97 nmoles/mg wet weight, the GLUTAMATE tissue content stood at 10.29 nmoles/mg wet weight, the TAURINE tissue content was 5.36 nmoles/mg wet weight and the “RATIO GLU/TAU” value came to 2.01. Moreover, the “RATIO GLY/GLU” value in series [2] (cerebellum, rats, 200 mg/kg) stood at 0.46. Besides, in series [2] (frontal cortex), the “% change GABA” value is “+29%”, the “% change GLUTAMATE” value is recorded as −20%, the “% change RATIO GLU/TAU” value is recorded as −33% and the “% change RATIO GLY/GLU” value is “+42%”. Also, the “% change TAURINE” value in series [2] (frontal cortex) is given as “+30%”. Also, in series [2] (setting [3]), the GABA tissue content is on record as 2.93 nmoles/mg wet weight, the GLUTAMATE tissue content is 11.90 nmoles/mg wet weight, the TAURINE tissue content is recorded as 10.00 nmoles/mg wet weight and the “RATIO GLU/TAU” value came to 1.32. The “RATIO GLY/GLU” value in series [2] (setting [3]) is reported as 0.40. Besides, in series [2] (hippocampus), the “% change GABA” value was “+32%”, the “% change GLUTAMATE” value is on record as “— (±15% considered non-significant: no change)”, the “% change RATIO GLU/TAU” value is reported as −24% and the “% change RATIO GLY/GLU” value is listed as “+20%”. Besides, in series [2] (hippocampus), the “% change TAURINE” value is on record as “+52%”. In addition, in series [2] (hippocampus, rats, 200 mg/kg), the GABA tissue content is reported as 3.73 nmoles/mg wet weight, the GLUTAMATE tissue content worked out at 15.76 nmoles/mg wet weight, the TAURINE tissue content is given as 11.22 nmoles/mg wet weight and the “RATIO GLU/TAU” value came out at 1.45. Further, in series [2] (hippocampus, rats, 200 mg/kg), the “RATIO GLY/GLU” value is recorded as 0.43. Besides, the “brain region of the most pronounced effects” value in series [2] (rats, 200 mg/kg) is recorded as “cortex-hippocampus”. Besides, in series [1], the “relative stability when” value is given as “the most”, the stability when dry entry is reported as “reasonably stable for up to a month” and the storage stability entry is listed as “stable for at least one month without appreciable decomposition”. Also, the “decomposition in 95% ethanol” value in series [1] (95% ethanol, over 48 h) is reported as “little or no decomposition”. Moreover, in series [1] (water, ambient temperature, TLC and NMR monitoring), the stable in water entry is on record as “at least 3 h”. The “onset of severe ataxia, laboured breathing and grooming behaviour towards the site of injection” value in the series with mice (male mice (20 g), 200 mg/Kg i.p.) was ≤ 5 min. For the same compound, the behaviour following injection result with mice is “very quiet, showed strongly reduced responsiveness to environmental stimuli, and reduced mobility”. Further, in the series with mice (setting [4]), the “Onset of sedation following the first injection” value came out at 5 min, the “effect of the two subsequent injections on behaviour” value is “did not aggravate nor modify the tranquil behaviour” and the “time after last injection to start of return to normal behaviour” value was “Two to three hours”. Further, in the series with mice (mouse, in vivo, sc, 100 mg/kg), the “Observation for the next 24 h” value is given as “did not reveal any abnormalities”.

Usually half-life stands for how long it takes for the measured level to halve.
